Test system: HIV
Experiment: HOS HIV infectivity assay (Table 2, strain not given)
Format: cell-based
Conditions: Human immunodeficiency virus 1, read-out: Activity Level
Procedure, shortened: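 HOS cells expressing hCXCR4/hCCR5/hCD4 and an HIV-LTR-luciferase reporter were preincubated with compound for 1 h in DMEM/2% FCS. They were then infected with HIV-1 Ba-L or IIIB (about 2 million RLU/well) for 96 h at 37° C. Infection was read by luciferase luminescence, and viability in uninfected cultures by CellTiter-Glo.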

| IC50 [nM] | SMILES |
| --- | --- |
| < 100 | CN1CCN(c2cccc3nc(CN(CC4CC4)[C@H]4CCCc5cccnc54)cn23)CC1 [Example 57, (8S)—N-(Cyclopropylmethyl)-N-{[5-(4-methyl-1-piperazinyl)imidazo[1,2-a]pyridin-2-yl]methyl}-5,6,7,8-tetrahydro-8-quinolinamine] |
| < 100 | CN(Cc1cn2c(N3CCN4CCCC4C3)cccc2n1)[C@H]1CCCc2cccnc21 (stereo partly drawn) [Example 82, (8S)—N-{[5-(Hexahydropyrrolo[1,2-a]pyrazin-2(1H)-yl)imidazo[1,2-a]pyridin-2-yl]methyl}-N-methyl-5,6,7,8-tetrahydro-8-quinolinamine] |
| < 100 | CN1CCC(N(C)c2cccc3nc(CN(C)[C@H]4CCCc5cccnc54)cn23)C1 (stereo partly drawn) [Example 86, (8S)—N-Methyl-N-({5-[methyl(1-methyl-3-pyrrolidinyl)amino]imidazo[1,2-a]pyridin-2-yl}methyl)-5,6,7,8-tetrahydro-8-quinolinamine] |
| < 100 | CN(Cc1cn2c(N3CCCNCC3)cccc2n1)C1CCCc2cccnc21 (stereo not shown) [Example 30, N-{[5-(Hexahydro-1H-1,4-diazepin-1-yl)imidazo[1,2-a]pyridin-2-yl]methyl}-N-methyl-5,6,7,8-tetrahydro-8-quinolinamine] |
| 100 to 500 | CN1CCN(c2cccc3nc(CN(Cc4ccccc4C(F)(F)F)[C@H]4CCCc5cccnc54)cn23)CC1 [Example 69, (8S)—N-{[5-(4-Methyl-1-piperazinyl)imidazo[1,2-a]pyridin-2-yl]methyl}-N-{[2-(trifluoromethyl)phenyl]methyl}-5,6,7,8-tetrahydro-8-quinolinamine] |
| < 100 | CC(C)N1CCN(c2cccc3nc(CN(C)[C@H]4CCCc5cccnc54)cn23)CC1 [Example 89, (8S)—N-Methyl-N-({5-[4-(1-methylethyl)-1-piperazinyl]imidazo[1,2-a]pyridin-2-yl}methyl)-5,6,7,8-tetrahydro-8-quinolinamine] |
| 100 to 500 | COc1ccc([C@H](C)N(Cc2cn3c(N4CCN(C)CC4)cccc3n2)[C@H]2CCCc3cccnc32)cc1 [Example 48, (8S)—N-{(1S)-1-[4-(Methyloxy)phenyl]ethyl}-N-{[5-(4-methyl-1-piperazinyl)imidazo[1,2-a]pyridin-2-yl]methyl}-5,6,7,8-tetrahydro-8-quinolinamine] |
| < 100 | CCCN(Cc1cn2c(N3CC[C@@H](N(C)C)C3)cccc2n1)[C@H]1CCCc2cccnc21 [Example 97, (8S)—N-({5-[(3R)-3-(Dimethylamino)-1-pyrrolidinyl]imidazo[1,2-a]pyridin-2-yl}methyl)-N-propyl-5,6,7,8-tetrahydro-8-quinolinamine] |
| < 100 | CN(Cc1cn2c(N3CCCNCC3)cccc2n1)[C@H]1CCCc2cccnc21 [Example 84, (8S)—N-{[5-(Hexahydro-1H-1,4-diazepin-1-yl)imidazo[1,2-a]pyridin-2-yl]methyl}-N-methyl-5,6,7,8-tetrahydro-8-quinolinamine] |
| < 100 | CN(Cc1cn2c(NCCN3CCCC3)cccc2n1)[C@H]1CCCc2cccnc21 [Example 102, (8S)—N-Methyl-N-[(5-{[2-(1-pyrrolidinyl)ethyl]amino}imidazo[1,2-a]pyridin-2-yl)methyl]-5,6,7,8-tetrahydro-8-quinolinamine] |
